Laboratory results as given in ChEMBL document CHEMBL1201862, “PubChem BioAssay data set” (2004).
Activity calls are given as the source filed them. Cut-off read from the data, not from the text of the source, for most assays here: actives have a measured EC50 and inactives only a lower limit.

How the values were obtained:
BJ [1] = experiment: BJ-TERT-LT-ST fibroblast viability loss – cell-based, RAS-independent, luminescence, dose response (AID 1935); type: functional; conditions: Homo sapiens;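 note: BJ fibroblasts immortalized with TERT plus LT and ST oncogenes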
[2] = DRD fibroblast viability loss – cell-based, non-viral oncogenic, luminescence, dose response (AID 1934); type: functional; conditions: Homo sapiens
BJ [3] = experiment: cells; type: functional, cell-based; conditions: Homo sapiens
BJ [4] = experiment: BJ-TERT fibroblast viability loss – cell-based, RAS-independent, luminescence, dose response (AID 1933); type: functional; conditions: Homo sapiens
[5] = target: FAD-linked sulfhydryl oxidase ALR (Homo sapiens, UniProt P55789); experiment: ALR-catalysed DTT oxidation blockers – biochemical, H2O2 detection, luminescence, cherry-pick, dose response (AID 493248)
Chain of FAD-linked sulfhydryl oxidase ALR (P55789 whole entry): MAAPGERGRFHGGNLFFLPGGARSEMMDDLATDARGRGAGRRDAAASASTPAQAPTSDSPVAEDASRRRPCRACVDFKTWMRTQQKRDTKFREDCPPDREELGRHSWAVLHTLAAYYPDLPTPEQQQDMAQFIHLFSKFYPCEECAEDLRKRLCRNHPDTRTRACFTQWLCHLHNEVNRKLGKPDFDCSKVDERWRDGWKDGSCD

[6] = target: T1, Calpain-2 catalytic subunit (Sus scrofa, UniProt P43367); experiment: m-calpain protease blockers, concentration series – biochemical, fluorogenic peptide substrate, dose response (AID 1420); type: functional
T1 sequence (P43367 whole entry): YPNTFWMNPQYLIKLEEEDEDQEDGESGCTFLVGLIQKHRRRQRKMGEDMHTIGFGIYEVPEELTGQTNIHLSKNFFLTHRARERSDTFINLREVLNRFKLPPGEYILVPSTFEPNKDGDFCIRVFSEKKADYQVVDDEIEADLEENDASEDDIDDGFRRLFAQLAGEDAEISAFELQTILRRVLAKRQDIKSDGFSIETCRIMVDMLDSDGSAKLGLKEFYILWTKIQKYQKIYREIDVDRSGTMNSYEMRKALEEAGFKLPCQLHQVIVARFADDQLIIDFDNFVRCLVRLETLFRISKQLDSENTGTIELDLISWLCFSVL

[7] = NIH-3T3 fibroblast cytotoxicity, dose response, cytotoxicity control, cell-based, fluorescence, Alamar Blue, secondary assay (AID 2327); type: functional;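 note: NIH-3T3 mouse fibroblasts cultured with fluconazole at 8 µg/mL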
[8] = fluconazole-exposed Candida albicans growth modulators – fluorescence, retest, confirmation (AID 2467); type: functional, cell-based
[9] = Trypanosoma cruzi growth suppression in host cells – NIH3T3 host cells, beta-gal luminescence, confirmation (AID 2044); type: functional, cell-based;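 note: intracellular parasites grown in NIH/3T3 mouse fibroblasts as host cells; luminescent beta-galactosidase reporter signal from transgenic T. cruzi replicating inside host cells; inhibitors lower the luminescence signal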
[10] = NIH3T3 cell viability loss – ATP luminescence, mouse fibroblasts, counter-screen, dose response (AID 2010); type: functional, cell-based;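 note: cells exposed to compound for about 90 hours before reading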
cells = type: functional
Paired box protein Pax-8 = Paired box protein Pax-8 (Homo sapiens, UniProt Q06710); experiment: PAX8 transcriptional activity inhibition in RMG-I – RMG-I cells, luciferase, cherry-pick, dose response (AID 687027); type: functional, cell-based;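 note: luciferase reporter driven by Pax8 target thyroperoxidase promoter measured by SteadyGlo luminescence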
Chain of Paired box protein Pax-8 (Q06710 whole entry): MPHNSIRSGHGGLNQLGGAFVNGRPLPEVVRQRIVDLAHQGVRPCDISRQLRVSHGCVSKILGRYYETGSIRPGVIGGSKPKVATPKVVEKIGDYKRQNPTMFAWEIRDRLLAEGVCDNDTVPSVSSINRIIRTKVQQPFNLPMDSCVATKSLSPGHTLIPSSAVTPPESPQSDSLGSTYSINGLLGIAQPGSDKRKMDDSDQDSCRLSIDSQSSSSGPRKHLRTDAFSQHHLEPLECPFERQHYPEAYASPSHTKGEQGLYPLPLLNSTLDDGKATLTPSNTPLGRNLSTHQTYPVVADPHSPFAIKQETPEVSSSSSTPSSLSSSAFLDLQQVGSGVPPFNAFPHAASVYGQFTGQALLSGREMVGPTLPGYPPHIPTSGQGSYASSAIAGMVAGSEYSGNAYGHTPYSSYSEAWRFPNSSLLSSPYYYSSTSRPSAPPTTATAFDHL

[11] = target: T2, Rac GTPase-activating protein 1 (Homo sapiens, UniProt Q9H0H5); experiment: blockers of MgcRacGAP-driven Rac1 GTP hydrolysis – biochemical, ADP Hunter fluorescence, primary and confirmatory, confirmation (AID 624330); type: functional
T2 sequence (Q9H0H5 whole entry): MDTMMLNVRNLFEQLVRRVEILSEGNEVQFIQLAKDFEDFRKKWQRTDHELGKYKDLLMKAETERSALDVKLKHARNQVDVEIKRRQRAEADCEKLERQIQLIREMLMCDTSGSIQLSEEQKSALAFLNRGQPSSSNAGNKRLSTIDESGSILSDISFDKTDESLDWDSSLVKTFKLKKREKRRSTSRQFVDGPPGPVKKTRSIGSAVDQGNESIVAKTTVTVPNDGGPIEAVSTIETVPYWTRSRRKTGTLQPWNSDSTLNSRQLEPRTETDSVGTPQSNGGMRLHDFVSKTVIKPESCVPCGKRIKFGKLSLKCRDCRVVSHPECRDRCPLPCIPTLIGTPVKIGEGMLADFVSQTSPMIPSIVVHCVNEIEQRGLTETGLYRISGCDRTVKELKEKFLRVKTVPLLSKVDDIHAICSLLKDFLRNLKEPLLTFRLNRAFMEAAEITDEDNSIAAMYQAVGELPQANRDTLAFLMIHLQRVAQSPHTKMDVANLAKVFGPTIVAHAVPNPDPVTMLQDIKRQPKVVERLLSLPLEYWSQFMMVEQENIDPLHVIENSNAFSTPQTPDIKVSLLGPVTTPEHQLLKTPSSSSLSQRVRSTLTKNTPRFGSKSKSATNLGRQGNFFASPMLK

With Cc1cc(NC(=O)CSc2nc(-c3ccco3)cc(C(F)(F)F)n2)n(-c2ccccc2)n1 the EC50 (BJ [1]) was > 75 µM (not active), the EC50 [2] was 14.9 µM (active) and the EC50 (BJ [3]) was 64.5 µM (inconclusive). The EC50 (BJ [4]) was 17.6 µM (inconclusive).

In the case of Cc1noc(C)c1C(=O)N1CCCC(Nc2ccc(C(C)C)cc2)C1 (centres undefined), the AC50 [5] is reported as 7.67 µM (active).

In the case of O=C(O/N=C1\CCS(=O)(=O)c2sccc21)c1ccc(F)cc1, the IC50 [6] is reported as < 0.4 µM (not active).

For NS(=O)(=O)c1ccc(NNC(=O)c2ccc(Br)o2)c([N+](=O)[O-])c1, the AC50 [5] was 8.06 µM (active).

For ClCc1csc(-c2ccc(Cl)cc2)n1, the AC50 [5] was 4.37 µM (active).

With C=CC[C@@H]1C=C(C)C[C@H](C)C[C@H](OC)[C@H]2O[C@@](O)(C(=O)C(=O)N3CCCC[C@H]3C(=O)O[C@H](/C(C)=C/[C@@H]3CC[C@@H](O)[C@H](OC)C3)[C@H](C)[C@@H](O)CC1=O)[C@H](C)C[C@@H]2OC the EC50 [7] was > 160 µM (inactive) and the EC50 [8] was 0.035 µM (active).

For CC(C)C[C@H](NC(=O)c1[nH]cnc1C(=O)NCc1ccccc1)C(=O)OC(C)(C)C, the IC50 [6] was 10.8 µM (not active).

In the case of COc1ccc(-[n+]2c(-c3ccc(Br)cc3)cn3c2SC(C)C3)cc1 (centres undefined), the EC50 [7] is reported as > 160 µM (inactive), the EC50 [9] is reported as 0.684 µM (active) and the EC50 [10] is reported as > 30 µM (not active). For the same molecule, the EC50 [8] was 2.96 µM (active).

In the case of CCOC(=O)CCCNC(=O)COC(=O)c1cc(Br)c(Br)s1, the IC50 (cells) is reported as 13.2 µM (active).

In the case of COc1ccc(C(=O)N/N=C/c2ccc(OC)c(CN3CCN(c4ccc(F)cc4)CC3)c2)cc1, the AC50 (Paired box protein Pax-8) is reported as 35.8 µM (active).

For C/C(CC(=O)Nc1ccc(N(C)C)cc1)=N\NC(=O)c1ccc([N+](=O)[O-])cc1, the IC50 [11] was 62.3 µM (active) and the AC50 [5] was 5.09 µM (active).

In the case of CCCNC(=O)c1c(CSc2ccccc2)noc1C(=O)NCc1ccccc1, the IC50 [6] is reported as 3.24 µM (not active).

In the case of CCN1C/C(=C/c2ccc(N3CCOCC3)cc2)C(=O)/C(=C/c2ccc(N3CCOCC3)cc2)C1, the EC50 (BJ [1]) is reported as 5.64 µM (active), the EC50 [2] is reported as 5.96 µM (active) and the EC50 (BJ [3]) is reported as 11 µM (inconclusive). The EC50 (BJ [4]) was 7.89 µM (active).
